# pIC50: −log10 of the molar value. Where two headings read alike, the source gives them in different places.
# Experiments:
# DLD-1 cells = test: Cell proliferation PAD assay, DLD-1; type: cell-based; settings: Homo sapiens, DLD1 cells, 6pt, 48 hours
# From the text: (§1) Table 3 illustrates the inhibitory activity of the compounds of the invention determined by the PAD assay described above in a number of cell types. Apoptosis was not
# (§2) Cell lines used are available from American Type Culture Collection (ATCC), for example, cell cultures containing A549 (ATCC# CCL-185), HeLa (ATCC# CCL-2), HCT116 ATTC# CCL-247), and H1299 (ATCC# CRL-5803) cells were maintained in T175 flasks following the ATCC recommended media and handling procedures. […] A 20,000 cells/ml solution was made for plating. Cells were plated in black Packard 96 well plates by placing 100 μl per well (2,000 cells per well). […] The definitions of the cell types used are as follows: A549 is lung carcinoma; HI 299 is non-small cell lung carcinoma; HI 155 is non-small cell lung carcinoma; AsPC-1 is pancreatic adenocarcinoma; Caov-3 is ovarian adenocarcinoma; COLO 205 is colorectal adenocarcinoma; DLD-1 colorectal adenocarcinoma; HCT116 is colorectal carcinoma; DU 145 is prostate carcinoma; ES-2 is ovarian clear cell carcinoma; H460 is large cell lung carcinoma; HELA is cervical adenocarcinoma; MIA PaCa-2 is pancreatice carcinoma; OVCAR-3 is ovarian adenocarcinoma; OVCAR8 is ovarian carcinoma; PC3 is prostate adenocarcinoma; SK-OV-3 is ovarian adenocarcinoma; SU86.86 is pancreatic carcinoma; TOV-21G is avarian clear cell carcinoma; U2OS is bone osteosarcoma; is ASPC-I is pancreatic adenocarcinoma; BXPC-3 is pabcreatic adenocarcinoma; HL60 is promyeloblast promyelocytic leukemia; K562 is bone marrow chronic myelogenous leukemia; L1210 is mouse lymphocytic leukemia; MOLT3 is T lymphoblast acute lymphoblastic leukemia; MOLT4 is T lymphoblast acute lymphoblastic leukemia; SW620 is colorectal adenocarcinoma; THP-1 is monocyte acute monocytic leukemia; U937 is histiocytic lymphoma; and UACC-257 is melanoma.
# (§3) Compounds and additional media were added 24 hours after cell plating. A compound master plate was created with concentrations 500 times greater than the final concentration added to the cells. All compound testing was done in duplicate using 6.3 fold dilutions starting with 10 mM. All outside wells (and 4 internal wells) were DMSO controls. Taxol and at least one additional control were run on all plates. Three microliters of the compound master plate were added to deep well blocks containing 750 μl of RPMI media. One hundred microliters were transferred from the compound/media deep well blocks to the plated cells resulting in a 500 fold dilution of the compounds. Cells were grown at 37° C., 5% CO2 for 48 hours.
# (§4) Cells to be analyzed by photography were fixed and stained. One hundred microliters of media were removed and 100 μl of 9.3% formamide was added to each well. Plates were left on the benchtop for 45 minutes. A staining solution containing 1.55 μl of 1 mg/ml DAPI added to 18.75 ml PBS was warmed for 15 minutes at 37° C. The cells were aspirated prior to washing with 100 μl of PBS. Seventy microliters of PBS were aspirated and 170 μl of the DAPI solution were added to each well of fixed cells. Plates were left at room temperature for one hour then aspirated and washed twice with 100 μl of PBS. The stained cells were left at 4° C. for a minimum of 16 hours before photographic analysis with Array Scan II (Cellomics). Analysis of the photographic images to determine numbers of live cells (proliferation), apoptotic cells and dead cells, were according to the methods described in U.S. Utility patent application Ser. No. 10/652,440, which incorporated herein in its entirety.
# HELA cells = test: Cell proliferation PAD assay, HeLa; type: cell-based; settings: Homo sapiens, 6pt, 48 hours
# From the text: as §1, §2, §3, §4
# HCT116 cells = test: Cell proliferation PAD assay, HCT116; type: cell-based; settings: Homo sapiens, 48 hours
# From the text: as §1, §2, §3, §4
# ROC1/CUL1 = molecular target: T1, ROC1/CUL1 (Homo sapiens, UniProt P62877+Q13616); test: ROC1/CUL1 ubiquitin ligase assay (SCF assay); type: biochemical
# T1 construct: made in house
# T1 sequence (P62877 whole entry): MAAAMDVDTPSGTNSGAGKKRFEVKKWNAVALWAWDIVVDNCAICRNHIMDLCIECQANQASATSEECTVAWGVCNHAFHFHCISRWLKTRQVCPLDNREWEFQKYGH
# T1 sequence (Q13616 whole entry): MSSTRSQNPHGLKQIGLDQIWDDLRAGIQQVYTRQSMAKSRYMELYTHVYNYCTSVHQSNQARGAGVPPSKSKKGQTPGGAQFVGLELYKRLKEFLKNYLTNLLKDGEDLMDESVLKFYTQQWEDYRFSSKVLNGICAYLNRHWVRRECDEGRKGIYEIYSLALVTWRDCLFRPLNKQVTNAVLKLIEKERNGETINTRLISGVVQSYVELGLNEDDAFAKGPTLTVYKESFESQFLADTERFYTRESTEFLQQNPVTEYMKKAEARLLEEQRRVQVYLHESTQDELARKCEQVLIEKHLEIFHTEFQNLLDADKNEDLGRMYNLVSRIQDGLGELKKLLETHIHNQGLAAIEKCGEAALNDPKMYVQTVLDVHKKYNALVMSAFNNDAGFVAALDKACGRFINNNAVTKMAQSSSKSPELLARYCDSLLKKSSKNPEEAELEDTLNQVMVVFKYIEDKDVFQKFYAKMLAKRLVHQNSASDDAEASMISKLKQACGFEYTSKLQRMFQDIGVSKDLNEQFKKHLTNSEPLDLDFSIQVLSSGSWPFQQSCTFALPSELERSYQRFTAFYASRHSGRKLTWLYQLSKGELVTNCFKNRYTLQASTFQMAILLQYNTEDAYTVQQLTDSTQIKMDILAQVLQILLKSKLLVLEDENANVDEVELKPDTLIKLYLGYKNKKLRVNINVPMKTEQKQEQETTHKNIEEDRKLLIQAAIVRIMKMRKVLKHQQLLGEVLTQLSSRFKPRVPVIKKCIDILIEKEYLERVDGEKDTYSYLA
# Method in brief: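 His-ROC1/CUL1 (100 ng/well) with E1 (5 ng/well), UbcH5c E2 (25 nl/well) and Flag-ubiquitin (100 ng) on nickel-coated plates; the reaction solution held Tris pH 7.5, MgCl2, DTT and 2.5 mM ATP. Compounds were added and the reaction ran 1 h at RT. Bound ubiquitin was read by anti-Flag/HRP luminescence, giving IC50 across compound concentrations.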
# [1] = HCT-116, 6pt, read-out: HCT116 6pt
pIC50 (DLD-1 cells),pIC50 (HELA cells),pIC50 (HCT116 cells; [1]),pIC50 (ROC1/CUL1),"pIC50 (HCT116 cells; HCT-116, 9pt, read-out: HCT116 9pt)",SMILES
> 6.00,> 6.00,> 6.00,,,"O=[N+]([O-])c1ccc(SCCO)c2nonc12 [compound 150, 2-[(7-nitro-2,1,3-benzoxadiazol-4-yl)thio]ethanol]"
> 6.00,> 6.00,> 6.00,,,"COC(=O)c1ccc(NS(=O)(=O)c2c(Cl)ccc3nonc23)cc1 [compound 178, methyl 4-{[(5-chloro-2,1,3-benzoxadiazol-4-yl)sulfonyl]amino}benzoate]"
4.70 to 6.00,4.70 to 6.00,4.70 to 6.00,,,"O=S(=O)(c1c(Cl)ccc2nonc12)N1CCN(c2ncc(C(F)(F)F)cc2Cl)CC1 [compound 179, 5-chloro-4-({4-[3-chloro-5-(trifluoromethyl)pyridin-2-yl]piperazin-1-yl}sulfonyl)-2,1,3-benzoxadiazole]"
> 6.00,4.70 to 6.00,> 6.00,,,"Cc1cccc(N2CCN(S(=O)(=O)c3c(Cl)ccc4nonc34)CC2)n1 [compound 202, 5-chloro-4-{[4-(6-methylpyridin-2-yl)piperazin-1-yl]sulfonyl}-2,1,3-benzoxadiazole]"
4.70 to 6.00,4.70 to 6.00,4.70 to 6.00,,,"O=S(=O)(Nc1ccc2cn[nH]c2c1)c1ccc(Cl)c2nonc12 [compound 220, 7-chloro-N-1 H-indazol-6-yl-2,1,3-benzoxadiazole-4-sulfonamide]"
,≤ 4.70,,≤ 4.70,> 6.00,"CC1(C)CCN(S(=O)(=O)c2c(Cl)ccc3nonc23)CC1 [compound 245, 5-chloro-4-[(4,4-dimethylpiperidin-1-yl)sulfonyl]-2,1,3-benzoxadiazole]"
4.70 to 6.00,4.70 to 6.00,> 6.00,,,"Cc1cc(C)cc(-c2ccc([N+](=O)[O-])c3nonc23)c1 [compound 286, 4-(3,5-Dimethylphenyl)-7-nitro-2,1,3-benzoxadiazole]"
